Consider 13 molecules from patent US20240308968A1, “FUNGICIDAL SUBSTITUTED HETEROCYCLES” (FMC Corporation, priority 2021, published 2024).

For one series, the system named is Zymoseptoria tritici. The experiment in a line: Test A: preventive spray on wheat seedlings, wheat leaf blotch disease rating. The class given is in vivo. The conditions noted are these: Zymoseptoria tritici, 456 h, 50 ppm, 100 = 100% disease control, 0 = no control. The essentials:
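Compounds in acetone/water (50/50) with 50–250 ppm PEG400, sprayed to run-off on wheat seedlings. Inoculated next day with Z. tritici spores, 48 h saturated atmosphere at 24 °C, then 17 days at 20 °C before disease rating.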

Series [1] has as its system Puccinia recondita f. sp. Tritici. Nature of the series: Test B: preventive spray on wheat seedlings, wheat leaf rust disease rating. The class given is in vivo. The conditions noted are these: Puccinia recondita, 192 h, 50 ppm, 100 = 100% disease control, 0 = no control. The essentials:
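Compounds in acetone/water (50/50) with 50-250 ppm PEG400 sprayed to run-off on wheat seedlings; inoculated with P. recondita spores next day. Held 24 h saturated at 20° C., then 7 days in growth chamber at 20° C. before rating; 100 = full control, 0 = none versus controls.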

The subject of series [2] is Blumeria graminis f. sp. Tritici. The experiment in a line: Test C: preventive spray on wheat seedlings, wheat powdery mildew disease rating. The note with it: Blumeria graminis, 192 h, 50 ppm, 100 = 100% disease control, 0 = no control. It counts as in vivo. The essentials:
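Wheat seedlings sprayed to run-off with test suspension (acetone 3% dissolution, then acetone/water 50/50 with 50–250 ppm PEG400), inoculated next day with Blumeria graminis spore dust. Held 8 days at 20° C in growth chamber, then visually rated (100 = full control, 0 = none, relative to controls).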

A further series deals with Phakopsora pachyrhizi. Nature of the series: Test D: preventive spray on soybean seedlings, Asian soybean rust disease rating. The class given is in vivo. The note with it: Phakopsora pachyrhizi, 216 h, 50 ppm, 100 = 100% disease control, 0 = no control. The essentials: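 Compounds in acetone/water (50/50) with 50–250 ppm PEG400 sprayed to run-off on soybean seedlings; inoculated next day with P. pachyrhizi spores, held 24 h saturated at 22° C, then 8 days at 22° C before visual disease rating.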

Another series deals with Botrytis cinerea. The experiment in a line: Test E: preventive spray on tomato seedlings, tomato Botrytis disease rating. It counts as in vivo. The conditions noted are these: Botrytis cinerea, 120 h, 50 ppm, 100 = 100% disease control, 0 = no control. The essentials:
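Tomato seedlings sprayed to run-off with compound suspended in acetone/water with PEG400 surfactant, then inoculated next day with Botrytis cinerea spores. Held 48 h saturated at 20 °C, then 3 days at 24 °C; disease rated visually, 0 to 100% control relative to controls.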

For another series, the system named is Alternaria solani. Nature of the series: Test F: preventive spray on tomato seedlings, tomato early blight disease rating. The note with it: Alternaria solani, 120 h, 50 ppm, 100 = 100% disease control, 0 = no control. It counts as in vivo. The essentials: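 Tomato seedlings were sprayed to run-off with compound suspensions in ppm (acetone/water with PEG400 surfactant) and inoculated with Alternaria solani spores the next day. Plants were held 48 h saturated at 27 °C, then 3 days at 20 °C. Disease was rated visually, with 100 as full control and 0 as none, relative to controls.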

`COc1cc(OC)c(Cl)c(-c2cc(C#N)c(=O)n(C)c2-c2c(F)cc(F)cc2F)c1` [Compound 68, 5-(2-chloro-3,5-dimethoxyphenyl)-1,2-dihydro-1-methyl-2-oxo-6-(2,4,6-trifluorophenyl)-3-pyridinecarbonitrile] had a melting point of 159 to 162 °C. Further, in the series on Zymoseptoria tritici, the pest or weed control at 50 ppm worked out at 100%. In series [1], this molecule gave a pest or weed control at 50 ppm of 100%. This molecule gave a pest or weed control at 50 ppm in series [2] of 99%. The pest or weed control at 50 ppm with Phakopsora pachyrhizi worked out at 100%. In addition, the pest or weed control at 50 ppm with Botrytis cinerea is 93%. The molecule also displayed a pest or weed control at 50 ppm with Alternaria solani of 99%.

On to `COc1cc(OC)c(Cl)c(-c2noc(=O)c(C)c2-c2ccc(F)cc2Cl)c1` [Compound 64, 3-(2-chloro-3,5-dimethoxyphenyl)-4-(2-chloro-4-fluorophenyl)-5-methyl-6H-1,2-oxazin-6-one], for which the melting point was 161 to 164 °C. The same molecule returned a pest or weed control at 50 ppm in the series with Zymoseptoria tritici of 97%. In series [1], the pest or weed control at 50 ppm came to 100%. This molecule also returned a pest or weed control at 50 ppm in series [2] of 98%. The molecule also registered a pest or weed control at 50 ppm with Phakopsora pachyrhizi of 99%. In addition, the pest or weed control at 50 ppm in the series with Botrytis cinerea was determined as 91%. In the series on Alternaria solani, this molecule gave a pest or weed control at 50 ppm of 99%.

Consider `COc1cc(OC)c(Cl)c(-n2nc(Cl)c(=O)c(C)c2-c2ccc(F)cc2Cl)c1` [Compound 92, 3-chloro-6-(2-chloro-4-fluorophenyl)-1-(2-chloro-3,5-dimethoxyphenyl)-5-methyl-4(1H)-pyridazinone], for which the melting point is 192 to 195 °C. In the series on Zymoseptoria tritici, the pest or weed control at 50 ppm worked out at 100%. The molecule also registered a pest or weed control at 50 ppm in series [1] of 100%. The same molecule came in with a pest or weed control at 50 ppm in series [2] of 99%. Besides, the pest or weed control at 50 ppm in the series on Phakopsora pachyrhizi is 100%. For the same molecule, the pest or weed control at 50 ppm with Botrytis cinerea worked out at 96%. Also, the pest or weed control at 50 ppm in the series on Alternaria solani is 99%.

Molecule `COc1ccc(Cl)c(-c2cc(C)nc(C)c2-c2ccc(F)cc2Cl)c1` [Compound 138, 3-(2-chloro-4-fluorophenyl)-4-(2-chloro-5-methoxyphenyl)-2,6-dimethylpyridine] came in with a melting point of 106 to 108 °C.

The molecule `COc1cc(OC)c(Cl)c(-c2cc(C#N)c(=O)n(C)c2-c2ccc(F)cc2Cl)c1` [Compound 156, 5-(2-chloro-3,5-dimethoxyphenyl)-6-(2-chloro-4-fluorophenyl)-1,2-dihydro-1-methyl-2-oxo-3-pyridinecarbonitrile] returned a melting point of 209 to 211 °C. This molecule displayed a pest or weed control at 50 ppm in the series with Zymoseptoria tritici of 100%. The pest or weed control at 50 ppm in series [1] stood at 100%. Also, in series [2], the pest or weed control at 50 ppm is 98%. Besides, in the series on Phakopsora pachyrhizi, the pest or weed control at 50 ppm was determined as 99%. This molecule had a pest or weed control at 50 ppm with Botrytis cinerea of 98%. The molecule further had a pest or weed control at 50 ppm in the series with Alternaria solani of 91%.

`COc1ccc(Cl)c(-n2nc(C)c(=O)c(Cl)c2-c2ccc(F)cc2)c1` [Compound 105, 5-chloro-1-(2-chloro-5-methoxyphenyl)-6-(4-fluorophenyl)-3-methyl-4(1H)-pyridazinone] displayed a melting point of 207 to 210 °C. Further, the pest or weed control at 50 ppm in the series with Zymoseptoria tritici amounted to 100%. This molecule returned a pest or weed control at 50 ppm in series [1] of 100%. In series [2], this molecule had a pest or weed control at 50 ppm of 95%. The pest or weed control at 50 ppm in the series on Phakopsora pachyrhizi came to 96%. In the series on Botrytis cinerea, this molecule returned a pest or weed control at 50 ppm of 98%. In the series on Alternaria solani, the pest or weed control at 50 ppm came to 100%.

For the molecule `COc1cc(OC)c(Cl)c(-n2nc(Br)c(=O)c(C)c2-c2ccc(F)cc2Cl)c1` [Compound 94, 3-bromo-6-(2-chloro-4-fluorophenyl)-1-(2-chloro-3,5-dimethoxyphenyl)-5-methyl-4(1H)-pyridazinone], the melting point lay in the range of 191 to 194 °C. In the series on Zymoseptoria tritici, this molecule registered a pest or weed control at 50 ppm of 100%. The pest or weed control at 50 ppm in series [1] was found to be 100%. Also, the pest or weed control at 50 ppm in series [2] turned out to be 100%. Also, in the series with Phakopsora pachyrhizi, the pest or weed control at 50 ppm turned out to be 100%. The molecule also came in with a pest or weed control at 50 ppm in the series with Botrytis cinerea of 98%. Further, the pest or weed control at 50 ppm in the series with Alternaria solani is 100%.

In turn, `CCn1c(-c2c(F)cc(F)cc2F)c(-c2cc(OC)cc(OC)c2Cl)cc(C#N)c1=O` [Compound 70, 5-(2-chloro-3,5-dimethoxyphenyl)-1,2-dihydro-1-ethyl-2-oxo-6-(2,4,6-trifluorophenyl)-3-pyridinecarbonitrile] registered a melting point of 171 to 173 °C. This molecule also yielded a pest or weed control at 50 ppm in the series on Zymoseptoria tritici of 100%. In series [1], this molecule yielded a pest or weed control at 50 ppm of 100%. This molecule also displayed a pest or weed control at 50 ppm in series [2] of 99%. In the series with Phakopsora pachyrhizi, this molecule came in with a pest or weed control at 50 ppm of 100%. The pest or weed control at 50 ppm with Botrytis cinerea is 96%. In the series on Alternaria solani, this molecule had a pest or weed control at 50 ppm of 98%.

Regarding `COc1cc(OC)cc(-n2nc(C)c(=O)c(C)c2-c2ccc(F)cc2Cl)c1` [Compound 97, 6-(2-chloro-4-fluorophenyl)-3,5-dimethyl-1-(3,5-dimethoxyphenyl)-4(1H)-pyridazinone], the melting point is 148 to 151 °C. This molecule showed a pest or weed control at 50 ppm in the series with Zymoseptoria tritici of 100%. In series [1], this molecule yielded a pest or weed control at 50 ppm of 100%. The same molecule gave a pest or weed control at 50 ppm in series [2] of 99%. The molecule further returned a pest or weed control at 50 ppm with Phakopsora pachyrhizi of 100%. In the series on Botrytis cinerea, this molecule returned a pest or weed control at 50 ppm of 96%. In the series with Alternaria solani, this molecule displayed a pest or weed control at 50 ppm of 100%.

The molecule `CCn1c(-c2ccc(F)cc2Cl)c(-c2cc(OC)cc(OC)c2Cl)cc(C#N)c1=O` [Compound 157, 5-(2-chloro-3,5-dimethoxyphenyl)-6-(2-chloro-4-fluorophenyl)-1,2-dihydro-1-ethyl-2-oxo-3-pyridinecarbonitrile] registered a melting point of 100 to 103 °C. This molecule also came in with a pest or weed control at 50 ppm with Zymoseptoria tritici of 100%. The same molecule gave a pest or weed control at 50 ppm in series [1] of 100%. The molecule also displayed a pest or weed control at 50 ppm in series [2] of 96%. In the series with Phakopsora pachyrhizi, this molecule yielded a pest or weed control at 50 ppm of 97%. This molecule displayed a pest or weed control at 50 ppm in the series on Botrytis cinerea of 99%. This molecule registered a pest or weed control at 50 ppm in the series with Alternaria solani of 98%.

Molecule `COc1cc(OC)cc(-n2nc(C)c(=O)c(C)c2-c2ccc(F)cc2F)c1` [Compound 29, 6-(2,4-difluorophenyl)-1-(3,5-dimethoxyphenyl)-3,5-dimethyl-4(1H)-pyridazinone] returned a melting point of 124 to 127 °C. Moreover, in the series with Zymoseptoria tritici, the pest or weed control at 50 ppm came to 100%. Also, the pest or weed control at 50 ppm in series [1] turned out to be 100%. Besides, in series [2], the pest or weed control at 50 ppm was 100%. Moreover, in the series on Phakopsora pachyrhizi, the pest or weed control at 50 ppm was found to be 99%. The molecule also displayed a pest or weed control at 50 ppm in the series with Botrytis cinerea of 98%. For the same molecule, in the series with Alternaria solani, the pest or weed control at 50 ppm was 100%.

Take `CCn1c(-c2c(F)cc(F)cc2F)c(-c2cc(OC)cc(OC)c2)cc(C#N)c1=O` [Compound 69, 1,2-dihydro-5-(3,5-dimethoxyphenyl)-1-ethyl-2-oxo-6-(2,4,6-trifluorophenyl)-3-pyridinecarbonitrile]: the melting point lay within 185 to 187 °C. In addition, in the series on Zymoseptoria tritici, the pest or weed control at 50 ppm is 100%. This molecule displayed a pest or weed control at 50 ppm in series [1] of 100%. Moreover, the pest or weed control at 50 ppm in series [2] is 99%. The pest or weed control at 50 ppm in the series on Phakopsora pachyrhizi was determined as 86%. This molecule also displayed a pest or weed control at 50 ppm in the series with Botrytis cinerea of 93%. For the same molecule, the pest or weed control at 50 ppm in the series with Alternaria solani is 99%.

In the case of `COc1cc(OC)cc(-c2cc(C#N)c(=O)n(C)c2-c2c(F)cc(F)cc2F)c1` [Compound 67, 1,2-dihydro-5-(3,5-dimethoxyphenyl)-1-methyl-2-oxo-6-(2,4,6-trifluorophenyl)-3-pyridinecarbonitrile], the melting point lay within 180 to 183 °C. The molecule further showed a pest or weed control at 50 ppm in the series with Zymoseptoria tritici of 100%. In series [1], this molecule had a pest or weed control at 50 ppm of 100%. In series [2], this molecule came in with a pest or weed control at 50 ppm of 84%. The same molecule registered a pest or weed control at 50 ppm in the series on Phakopsora pachyrhizi of 92%. In the series with Botrytis cinerea, this molecule came in with a pest or weed control at 50 ppm of 98%. Further, the pest or weed control at 50 ppm with Alternaria solani came out at 98%.
